Source: patent US6355799B1, “Substituted benzene compounds, process for their preparation, and herbicidal and defoliant compositions containing them” (ISK Americas Incorporated, priority 1997, dated 2002)

Tests used:
Assay type in all cases: in vivo
[1] = system: redroot pigweed (Amaranthus retroflexus, AMARE); test: Pre-emerge test, greenhouse herbicide activity screening; settings: pre-emerge, rated 14 days after application, 0 = no damage, 100 = complete death
In short: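 Plants grown in 10 cm pots of sandy loam mix received acetone-dissolved compounds through a moving flat-fan nozzle. Doses ranged from 15 to 1000 g ai/ha. Pre-emerge pots were seeded one day earlier, post-emerge pots 8–21 days earlier. Fourteen days on, each pot was graded 0–100 for damage.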

[2] = system: field corn (Zea mays L., var. Dekalb 535, CORN); test: Pre-emerge test, crop safety; settings: pre-emerge, rated 14 days after application, 0 = no damage, 100 = complete death
In short: (§1)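 Visual ratings on a 0-100 scale (0 no damage, 100 all plants dead) were taken at 14 days after treatment. Rates of 15-1000 g ai/ha in acetone, 187 l/ha, were sprayed onto soil one day after planting (pre-emerge) or onto 2-3 leaf plants with 0.25% v/v surfactant (post-emerge).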

[3] = system: upland rice (Oryza sp., var. Tebonnet, RICE); test: Pre-emerge test, crop safety; settings: pre-emerge, rated 14 days after application, 0 = no damage, 100 = complete death
In short: as §1

[4] = system: barnyardgrass (Echinochloa crus-galli, ECHCG); test: Post-emerge test, greenhouse herbicide activity screening; settings: phytotoxicity rating 0-100 (0 no damage, 100 complete death), 14 days after application
In short: (§2)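 Compounds in acetone were track-sprayed at 15-1000 g ai/ha (187 l/ha) on sandy loam pots: pre-emerge one day after seeding, post-emerge at 2-3 leaf stage with 0.25% v/v non-ionic surfactant. Phytotoxicity was rated 14 days later on a 0 (no damage) to 100 (complete death) scale.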

[5] = system: lambsquarters (Chenopodium album, CHEAL); test: as above; settings: phytotoxicity rating 0-100 (0 no damage, 100 complete death), 14 days after application
In short: as §2

[6] = system: large crabgrass (Digitaria sanguinalis, DIGSA); test: as above; settings: phytotoxicity rating 0-100 (0 no damage, 100 complete death), 14 days after application
In short: as §2

[7] = system: sicklepod (Cassia obtusifolia, CASOB); test: as above; settings: phytotoxicity rating 0-100 (0 no damage, 100 complete death), 14 days after application
In short: as §2

[8] = system: common ragweed (Ambrosia artemisizfolia L., AMBEL); test: as above; settings: phytotoxicity rating 0-100 (0 no damage, 100 complete death), 14 days after application
In short: as §2

[9] = system: ivyleaf morningglory (Ipomoea hederacea, IPOHE); test: as above; settings: phytotoxicity rating 0-100 (0 no damage, 100 complete death), 14 days after application
In short: as §2

[10] = system: johnsongrass (Sorghum halepense, SORHA); test: as above; settings: phytotoxicity rating 0-100 (0 no damage, 100 complete death), 14 days after application
In short: as §2

[11] = system: green foxtail (Setaria viridis, SETVI); test: as above; settings: phytotoxicity rating 0-100 (0 no damage, 100 complete death), 14 days after application
In short: as §2

[12] = system: redroot pigweed (Amaranthus retroflexus, AMARE); test: as above; settings: phytotoxicity rating 0-100 (0 no damage, 100 complete death), 14 days after application
In short: as §2

[13] = system: velvetleaf (Abutilon theophrasti, ABUTH); test: as above; settings: phytotoxicity rating 0-100 (0 no damage, 100 complete death), 14 days after application
In short: as §2

[14] = system: field corn (Zea mays L., var. Dekalb 535, CORN); test: Post-emerge test, crop safety; settings: phytotoxicity rating 0-100 (0 no damage, 100 complete death), 14 days after application
In short: (§3)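 Compounds in acetone were track-sprayed at 187 l/ha, 15–1000 g ai/ha, onto sandy loam pots. Pre-emerge seeds were sown one day before spraying, with surface watering afterwards. Post-emerge plants were at the 2–3 leaf stage and sprayed with 0.25% v/v non-ionic surfactant. Injury was rated 0–100 at 14 days.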

[15] = system: upland rice (Oryza sp., var. Tebonnet, RICE); test: Post-emerge test, crop safety; settings: phytotoxicity rating 0-100 (0 no damage, 100 complete death), 14 days after application
In short: as §3

[16] = system: barnyardgrass (Echinochloa crus-galli, ECHCG); test: Pre-emerge test, greenhouse herbicide activity screening; settings: pre-emerge, rated 14 days after application, 0 = no damage, 100 = complete death
In short: as §3

[17] = system: lambsquarters (Chenopodium album, CHEAL); test: as above; settings: pre-emerge, rated 14 days after application, 0 = no damage, 100 = complete death
In short: as §3

[18] = system: large crabgrass (Digitaria sanguinalis, DIGSA); test: as above; settings: pre-emerge, rated 14 days after application, 0 = no damage, 100 = complete death
In short: as §3

[19] = system: sicklepod (Cassia obtusifolia, CASOB); test: as above; settings: pre-emerge, rated 14 days after application, 0 = no damage, 100 = complete death
In short: as §3

[20] = system: common ragweed (Ambrosia artemisizfolia L., AMBEL); test: as above; settings: pre-emerge, rated 14 days after application, 0 = no damage, 100 = complete death
In short: as §3

[21] = system: ivyleaf morningglory (Ipomoea hederacea, IPOHE); test: as above; settings: pre-emerge, rated 14 days after application, 0 = no damage, 100 = complete death
In short: as §3

[22] = system: johnsongrass (Sorghum halepense, SORHA); test: as above; settings: pre-emerge, rated 14 days after application, 0 = no damage, 100 = complete death
In short: as §3

[23] = system: green foxtail (Setaria viridis, SETVI); test: as above; settings: pre-emerge, rated 14 days after application, 0 = no damage, 100 = complete death
In short: as §3

[24] = system: velvetleaf (Abutilon theophrasti, ABUTH); test: as above; settings: pre-emerge, rated 14 days after application, 0 = no damage, 100 = complete death
In short: as §3

In the case of `COc1c(Cl)cc(F)c(-n2c(=O)cc(C(F)(F)F)n(C)c2=O)c1NC(=O)C(F)(F)F` [2-10], the “Pre-emerge Herbicidal Activity AMARE (phytotoxicity rating, scale 0-100)” value ([1]; 63 g ai/ha) is reported as 50, the “Pre-emerge Herbicidal Activity AMARE (phytotoxicity rating, scale 0-100)” value ([1]; 250 g ai/ha) is reported as 100 and the “Pre-emerge crop damage CORN (phytotoxicity rating, scale 0-100)” value ([2]; 63 g ai/ha) is reported as 0. For the same molecule, the “Pre-emerge crop damage CORN (phytotoxicity rating, scale 0-100)” value ([2]; 250 g ai/ha) was 40, the “Pre-emerge crop damage RICE (phytotoxicity rating, scale 0-100)” value ([3]; 63 g ai/ha) was 0 and the “Pre-emerge crop damage RICE (phytotoxicity rating, scale 0-100)” value ([3]; 250 g ai/ha) was 30. The “Post-emerge Herbicidal Activity ECHCG” value ([4]; 63 g ai/ha) was 0, the “Post-emerge Herbicidal Activity ECHCG” value ([4]; 250 g ai/ha) was 60 and the “Post-emerge Herbicidal Activity CHEAL” value ([5]; 63 g ai/ha) was 50. The “Post-emerge Herbicidal Activity CHEAL” value ([5]; 250 g ai/ha) was 90, the “Post-emerge Herbicidal Activity DIGSA” value ([6]; 63 g ai/ha) was 0 and the “Post-emerge Herbicidal Activity DIGSA” value ([6]; 250 g ai/ha) was 40. The “Post-emerge Herbicidal Activity CASOB” value ([7]; 63 g ai/ha) was 0, the “Post-emerge Herbicidal Activity CASOB” value ([7]; 250 g ai/ha) was 10 and the “Post-emerge Herbicidal Activity AMBEL” value ([8]; 63 g ai/ha) was 0. For the same molecule, the “Post-emerge Herbicidal Activity AMBEL” value ([8]; 250 g ai/ha) was 50, the “Post-emerge Herbicidal Activity IPOHE” value ([9]; 63 g ai/ha) was 60 and the “Post-emerge Herbicidal Activity IPOHE” value ([9]; 250 g ai/ha) was 100. The “Post-emerge Herbicidal Activity SORHA” value ([10]; 63 g ai/ha) was 0, the “Post-emerge Herbicidal Activity SORHA” value ([10]; 250 g ai/ha) was 20 and the “Post-emerge Herbicidal Activity SETVI” value ([11]; 63 g ai/ha) was 0. The “Post-emerge Herbicidal Activity SETVI” value ([11]; 250 g ai/ha) was 70, the “Post-emerge Herbicidal Activity AMARE” value ([12]; 63 g ai/ha) was 0 and the “Post-emerge Herbicidal Activity AMARE” value ([12]; 250 g ai/ha) was 30. The “Post-emerge Herbicidal Activity ABUTH” value ([13]; 63 g ai/ha) was 95, the “Post-emerge Herbicidal Activity ABUTH” value ([13]; 250 g ai/ha) was 100 and the “Post-emerge Herbicidal Activity CORN (crop damage)” value ([14]; 63 g ai/ha) was 5. For the same molecule, the “Post-emerge Herbicidal Activity CORN (crop damage)” value ([14]; 250 g ai/ha) was 0, the “Post-emerge Herbicidal Activity RICE (crop damage)” value ([15]; 63 g ai/ha) was 0 and the “Post-emerge Herbicidal Activity RICE (crop damage)” value ([15]; 250 g ai/ha) was 5. The “Pre-emerge Herbicidal Activity ECHCG (phytotoxicity rating, scale 0-100)” value ([16]; 63 g ai/ha) was 0, the “Pre-emerge Herbicidal Activity ECHCG (phytotoxicity rating, scale 0-100)” value ([16]; 250 g ai/ha) was 95 and the “Pre-emerge Herbicidal Activity CHEAL (phytotoxicity rating, scale 0-100)” value ([17]; 63 g ai/ha) was 100. For the same molecule, the “Pre-emerge Herbicidal Activity CHEAL (phytotoxicity rating, scale 0-100)” value ([17]; 250 g ai/ha) was 100, the “Pre-emerge Herbicidal Activity DIGSA (phytotoxicity rating, scale 0-100)” value ([18]; 63 g ai/ha) was 90 and the “Pre-emerge Herbicidal Activity DIGSA (phytotoxicity rating, scale 0-100)” value ([18]; 250 g ai/ha) was 95. For the same molecule, the “Pre-emerge Herbicidal Activity CASOB (phytotoxicity rating, scale 0-100)” value ([19]; 63 g ai/ha) was 50, the “Pre-emerge Herbicidal Activity CASOB (phytotoxicity rating, scale 0-100)” value ([19]; 250 g ai/ha) was 90 and the “Pre-emerge Herbicidal Activity AMBEL (phytotoxicity rating, scale 0-100)” value ([20]; 63 g ai/ha) was 100. The “Pre-emerge Herbicidal Activity AMBEL (phytotoxicity rating, scale 0-100)” value ([20]; 250 g ai/ha) was 100, the “Pre-emerge Herbicidal Activity IPOHE (phytotoxicity rating, scale 0-100)” value ([21]; 63 g ai/ha) was 60 and the “Pre-emerge Herbicidal Activity IPOHE (phytotoxicity rating, scale 0-100)” value ([21]; 250 g ai/ha) was 100. For the same molecule, the “Pre-emerge Herbicidal Activity SORHA (phytotoxicity rating, scale 0-100)” value ([22]; 63 g ai/ha) was 0, the “Pre-emerge Herbicidal Activity SORHA (phytotoxicity rating, scale 0-100)” value ([22]; 250 g ai/ha) was 80 and the “Pre-emerge Herbicidal Activity SETVI (phytotoxicity rating, scale 0-100)” value ([23]; 63 g ai/ha) was 40. For the same molecule, the “Pre-emerge Herbicidal Activity SETVI (phytotoxicity rating, scale 0-100)” value ([23]; 250 g ai/ha) was 100, the “Pre-emerge Herbicidal Activity ABUTH (phytotoxicity rating, scale 0-100)” value ([24]; 63 g ai/ha) was 100 and the “Pre-emerge Herbicidal Activity ABUTH (phytotoxicity rating, scale 0-100)” value ([24]; 250 g ai/ha) was 100.
